32 compounds from the Kinase Knowledgebase extract (Sharma et al. 2016) can be followed below.

What is called IC50 is the concentration that inhibits the measured activity by half. A low value points to greater potency.

The target in this experiment is CDK2 (UniProt P24941). Description: Enzyme Assay.
Regarding `Cc1cccc(NC(=O)Nc2csc(-c3cccnc3)n2)n1`, the IC50 is under 50 µM.

The compound `NC(=O)c1ccc(NC(=O)Nc2csc(-c3ccncc3)n2)nc1` gave an IC50 of under 50 µM.

In turn, `O=C(Nc1csc(-c2cccnc2)n1)Nc1nccs1` returned an IC50 of under 50 µM.

In turn, `Cc1cccnc1NC(=O)Nc1csc(-c2ccncc2)n1` came in with an IC50 of under 50 µM.

`O=C(Nc1cccc(NCCCN2CCOCC2)n1)Nc1csc(-c2ccncc2)n1` returned an IC50 of under 50 µM.

With `O=C(Nc1ccccn1)Nc1csc(-c2ccncc2)n1`, the IC50 was under 50 µM.

On to `O=C(Nc1csc(-c2ccncc2)n1)Nc1csc(-c2ccncc2)n1`, for which the IC50 is under 50 µM.

In turn, `O=C(Nc1ccccn1)Nc1csc(-c2cccnc2)n1` showed an IC50 of under 50 µM.

In the case of `O=C(Nc1csc(-c2cccnc2)n1)Nc1nc(-c2ccccc2)cs1`, the IC50 was under 50 µM.

`CCc1cccc(NC(=O)Nc2csc(-c3ccncc3)n2)n1` showed an IC50 of under 50 µM.

In turn, `O=C(Nc1cccc(N2CCCCC2)n1)Nc1csc(-c2ccncc2)n1` displayed an IC50 of under 50 µM.

In turn, `O=C(Nc1csc(-c2ccncc2)n1)Nc1ccc2ccccc2n1` showed an IC50 of under 50 µM.

`Cc1ccc(NC(=O)Nc2csc(-c3ccncc3)n2)nc1` gave an IC50 of under 50 µM.

On to `CN1CCN(c2cccc(NC(=O)Nc3csc(-c4ccncc4)n3)n2)CC1`, for which the IC50 is under 50 µM.

`O=C(Nc1csc(-c2cccnc2)n1)Nc1csc(-c2cccnc2)n1` registered an IC50 of under 50 µM.

The compound `CCCc1cccc(NC(=O)Nc2csc(-c3ccnc(CC)c3)n2)n1` came in with an IC50 of under 50 µM.

In turn, `CN(C)CCNc1cccc(NC(=O)Nc2csc(-c3ccncc3)n2)n1` displayed an IC50 of under 50 µM.

Turning to `Cc1cccc(NC(=O)Nc2csc(-c3ccncc3)n2)n1`, the IC50 is under 50 µM.

In turn, `CCc1ccnc(NC(=O)Nc2csc(-c3ccncc3)n2)c1` yielded an IC50 of under 50 µM.

`O=C(Nc1cccc(N2CCOCC2)n1)Nc1csc(-c2ccncc2)n1` displayed an IC50 of under 50 µM.

Compound `CCCc1cccc(NC(=O)Nc2csc(-c3ccncc3)n2)n1` came in with an IC50 of under 50 µM.

For `CCN(CC)Cc1cccc(NC(=O)Nc2csc(-c3ccncc3)n2)n1`, the IC50 is under 50 µM.

`O=C(Nc1csc(-c2cccnc2)n1)Nc1nc(-c2cccnc2)cs1` showed an IC50 of under 50 µM.

The compound `CCN(CC)c1cccc(NC(=O)Nc2csc(-c3ccncc3)n2)n1` came in with an IC50 of under 50 µM.

In the case of `CCCc1cccc(NC(=O)Nc2cccc(-c3cccnc3)c2)n1`, the IC50 is under 50 µM.

Take `O=C(Nc1ccccn1)Nc1csc(-c2ccccn2)n1`: the IC50 is under 50 µM.

In turn, `O=C(Nc1ccc(C(F)(F)F)cn1)Nc1csc(-c2ccncc2)n1` yielded an IC50 of under 50 µM.

In the case of `O=C(Nc1csc(-c2ccncc2)n1)Nc1nc(-c2cccnc2)cs1`, the IC50 was under 50 µM.

`O=C(Nc1csc(-c2ccncc2)n1)Nc1nccs1` came in with an IC50 of under 50 µM.

`O=C(Nc1csc(-c2ccncc2)n1)Nc1cccc2[nH]cnc12` displayed an IC50 of under 50 µM.

Consider `O=C(Nc1csc(-c2ccncc2)n1)Nc1cc2ccccc2c(Br)n1`, for which the IC50 is under 50 µM.

`CN(C(=O)Nc1csc(-c2ccncc2)n1)c1ccccn1` returned an IC50 of under 50 µM.
